Data taken from patent US20260206755A1, “COMPOUNDS AND COMPOSITIONS HAVING KNOCK-DOWN OR BLOOD FEED INHIBITION ACTIVITY AGAINST INSECT PESTS” (priority 2017, published 2026).

Tested on: Anopheles stephensi
Test: Anopheles stephensi treated well plate contact test: knockdown and mortality
Format: in vivo
Conditions: Anopheles stephensi; test compound 0.2 ppm, without TFNA-AM, after 24 hours; read-out: mortality % 24, without TFNA-AM
Method: Examples Anopheles stephensi (Indian Malaria Mosquito)
The individual wells of twelve (12) well tissue culture plates were treated with 200 μl of an ethanol solution containing a test compound of Table 1 or Table 2 at a defined concentration and repeated with also 200 μl of an ethanol solution containing in addition 2 ppm TFNA-AM. Once the deposits were dry, five non-blood fed adult female Anopheles stephensi (between two to five day old) were added to each well, and sustained with a 10% sucrose solution in a cotton wool plug. Assessment of the knockdown after 1 hour, and mortality after 24 and 48 hours was carried out.
In case of multiple tests, the mean value is reported.

Row | Compound | mortality at 0.2 ppm [%]
1 | CCC(Nc1ncnc(C)c1Cl)c1ccc(OC(F)F)cc1 (stereo not shown) [Diflumetorim] | 0
2 | CN/C(=N/CC1CCOC1)N[N+](=O)[O-] (stereo not shown) [Dinotefuran] | 0

Same assay, conditions: Anopheles stephensi; test compound 0.2 ppm, without TFNA-AM, after 48 hours; read-out: mortality % 48, without TFNA-AM

Row | Compound | mortality at 0.2 ppm [%]
3 | CCC(Nc1ncnc(C)c1Cl)c1ccc(OC(F)F)cc1 (stereo not shown) [Diflumetorim] | 0
4 | CN/C(=N/CC1CCOC1)N[N+](=O)[O-] (stereo not shown) [Dinotefuran] | 0

Same assay, conditions: Anopheles stephensi; test compound 0.2 ppm, without TFNA-AM, knockdown after 1 hour; read-out: Knock Down, without TFNA-AM

Row | Compound | pest or weed control at 0.2 ppm [%]
5 | CCC(Nc1ncnc(C)c1Cl)c1ccc(OC(F)F)cc1 (stereo not shown) [Diflumetorim] | 0
6 | CN/C(=N/CC1CCOC1)N[N+](=O)[O-] (stereo not shown) [Dinotefuran] | 0

Same assay, conditions: Anopheles stephensi; test compound 2 ppm, without TFNA-AM, after 24 hours; read-out: mortality % 24, without TFNA-AM

Row | Compound | mortality at 2 ppm [%]
7 | CCC(Nc1ncnc(C)c1Cl)c1ccc(OC(F)F)cc1 (stereo not shown) [Diflumetorim] | 60
8 | CN/C(=N/CC1CCOC1)N[N+](=O)[O-] (stereo not shown) [Dinotefuran] | 40

Same assay, conditions: Anopheles stephensi; test compound 2 ppm, without TFNA-AM, after 48 hours; read-out: mortality % 48, without TFNA-AM

Row | Compound | mortality at 2 ppm [%]
9 | CCC(Nc1ncnc(C)c1Cl)c1ccc(OC(F)F)cc1 (stereo not shown) [Diflumetorim] | 60
10 | CN/C(=N/CC1CCOC1)N[N+](=O)[O-] (stereo not shown) [Dinotefuran] | 40

Same assay, conditions: Anopheles stephensi; test compound 2 ppm, without TFNA-AM, knockdown after 1 hour; read-out: Knock Down, without TFNA-AM

Row | Compound | pest or weed control at 2 ppm [%]
11 | CCC(Nc1ncnc(C)c1Cl)c1ccc(OC(F)F)cc1 (stereo not shown) [Diflumetorim] | 30
12 | CN/C(=N/CC1CCOC1)N[N+](=O)[O-] (stereo not shown) [Dinotefuran] | 0

Same assay, conditions: Anopheles stephensi; test compound 20 ppm, without TFNA-AM, after 24 hours; read-out: mortality % 24, without TFNA-AM

Row | Compound | mortality at 20 ppm [%]
13 | CCC(Nc1ncnc(C)c1Cl)c1ccc(OC(F)F)cc1 (stereo not shown) [Diflumetorim] | 100
14 | CN/C(=N/CC1CCOC1)N[N+](=O)[O-] (stereo not shown) [Dinotefuran] | 40

Same assay, conditions: Anopheles stephensi; test compound 20 ppm, without TFNA-AM, after 48 hours; read-out: mortality % 48, without TFNA-AM

Row | Compound | mortality at 20 ppm [%]
15 | CCC(Nc1ncnc(C)c1Cl)c1ccc(OC(F)F)cc1 (stereo not shown) [Diflumetorim] | 100
16 | CN/C(=N/CC1CCOC1)N[N+](=O)[O-] (stereo not shown) [Dinotefuran] | 80

Same assay, conditions: Anopheles stephensi; test compound 20 ppm, without TFNA-AM, knockdown after 1 hour; read-out: Knock Down, without TFNA-AM

Row | Compound | pest or weed control at 20 ppm [%]
17 | CCC(Nc1ncnc(C)c1Cl)c1ccc(OC(F)F)cc1 (stereo not shown) [Diflumetorim] | 100
18 | CN/C(=N/CC1CCOC1)N[N+](=O)[O-] (stereo not shown) [Dinotefuran] | 0

Same assay, conditions: Anopheles stephensi; test compound 200 ppm, without TFNA-AM, after 24 hours; read-out: mortality % 24, without TFNA-AM

Row | Compound | mortality at 200 ppm [%]
19 | CCC(Nc1ncnc(C)c1Cl)c1ccc(OC(F)F)cc1 (stereo not shown) [Diflumetorim] | 100
20 | CN/C(=N/CC1CCOC1)N[N+](=O)[O-] (stereo not shown) [Dinotefuran] | 100

Same assay, conditions: Anopheles stephensi; test compound 200 ppm, without TFNA-AM, after 48 hours; read-out: mortality % 48, without TFNA-AM

Row | Compound | mortality at 200 ppm [%]
21 | CCC(Nc1ncnc(C)c1Cl)c1ccc(OC(F)F)cc1 (stereo not shown) [Diflumetorim] | 100
22 | CN/C(=N/CC1CCOC1)N[N+](=O)[O-] (stereo not shown) [Dinotefuran] | 100

Same assay, conditions: Anopheles stephensi; test compound 200 ppm, without TFNA-AM, knockdown after 1 hour, adult females; read-out: Knock Down, without TFNA-AM

Row | Compound | pest or weed control at 200 ppm [%]
23 | CCC(Nc1ncnc(C)c1Cl)c1ccc(OC(F)F)cc1 (stereo not shown) [Diflumetorim] | 100
24 | CN/C(=N/CC1CCOC1)N[N+](=O)[O-] (stereo not shown) [Dinotefuran] | 40

Same assay, conditions: test compound 0.2 ppm plus 2 ppm TFNA-AM, after 24 hours

Row | Compound | mortality % 24, with TFNA-AM [%]
25 | CCC(Nc1ncnc(C)c1Cl)c1ccc(OC(F)F)cc1 (stereo not shown) [Diflumetorim] | 20

Same assay, conditions: test compound 0.2 ppm plus 2 ppm TFNA-AM, after 48 hours

Row | Compound | mortality % 48, with TFNA-AM [%]
26 | CCC(Nc1ncnc(C)c1Cl)c1ccc(OC(F)F)cc1 (stereo not shown) [Diflumetorim] | 10
27 | CN/C(=N/CC1CCOC1)N[N+](=O)[O-] (stereo not shown) [Dinotefuran] | 60

Same assay, conditions: test compound 0.2 ppm plus 2 ppm TFNA-AM, knockdown after 1 hour

Row | Compound | Knock Down, with TFNA-AM [%]
28 | CCC(Nc1ncnc(C)c1Cl)c1ccc(OC(F)F)cc1 (stereo not shown) [Diflumetorim] | 100
29 | CN/C(=N/CC1CCOC1)N[N+](=O)[O-] (stereo not shown) [Dinotefuran] | 100

Same assay, conditions: test compound 2 ppm plus 2 ppm TFNA-AM, after 24 hours

Row | Compound | mortality % 24, with TFNA-AM [%]
30 | CCC(Nc1ncnc(C)c1Cl)c1ccc(OC(F)F)cc1 (stereo not shown) [Diflumetorim] | 90

Same assay, conditions: test compound 2 ppm plus 2 ppm TFNA-AM, after 48 hours

Row | Compound | mortality % 48, with TFNA-AM [%]
31 | CCC(Nc1ncnc(C)c1Cl)c1ccc(OC(F)F)cc1 (stereo not shown) [Diflumetorim] | 90
32 | CN/C(=N/CC1CCOC1)N[N+](=O)[O-] (stereo not shown) [Dinotefuran] | 60

Same assay, conditions: test compound 2 ppm plus 2 ppm TFNA-AM, knockdown after 1 hour

Row | Compound | Knock Down, with TFNA-AM [%]
33 | CCC(Nc1ncnc(C)c1Cl)c1ccc(OC(F)F)cc1 (stereo not shown) [Diflumetorim] | 100
34 | CN/C(=N/CC1CCOC1)N[N+](=O)[O-] (stereo not shown) [Dinotefuran] | 100

Same assay, conditions: test compound 20 ppm plus 2 ppm TFNA-AM, after 24 hours

Row | Compound | mortality % 24, with TFNA-AM [%]
35 | CCC(Nc1ncnc(C)c1Cl)c1ccc(OC(F)F)cc1 (stereo not shown) [Diflumetorim] | 100
36 | CN/C(=N/CC1CCOC1)N[N+](=O)[O-] (stereo not shown) [Dinotefuran] | 100

Same assay, conditions: test compound 20 ppm plus 2 ppm TFNA-AM, after 48 hours

Row | Compound | mortality % 48, with TFNA-AM [%]
37 | CCC(Nc1ncnc(C)c1Cl)c1ccc(OC(F)F)cc1 (stereo not shown) [Diflumetorim] | 100
38 | CN/C(=N/CC1CCOC1)N[N+](=O)[O-] (stereo not shown) [Dinotefuran] | 100

Same assay, conditions: test compound 20 ppm plus 2 ppm TFNA-AM, knockdown after 1 hour

Row | Compound | Knock Down, with TFNA-AM [%]
39 | CCC(Nc1ncnc(C)c1Cl)c1ccc(OC(F)F)cc1 (stereo not shown) [Diflumetorim] | 100
40 | CN/C(=N/CC1CCOC1)N[N+](=O)[O-] (stereo not shown) [Dinotefuran] | 100

Same assay, conditions: test compound 200 ppm plus 2 ppm TFNA-AM, after 24 hours

Row | Compound | mortality % 24, with TFNA-AM [%]
41 | CCC(Nc1ncnc(C)c1Cl)c1ccc(OC(F)F)cc1 (stereo not shown) [Diflumetorim] | 100
42 | CN/C(=N/CC1CCOC1)N[N+](=O)[O-] (stereo not shown) [Dinotefuran] | 100

Same assay, conditions: test compound 200 ppm plus 2 ppm TFNA-AM, after 48 hours

Row | Compound | mortality % 48, with TFNA-AM [%]
43 | CCC(Nc1ncnc(C)c1Cl)c1ccc(OC(F)F)cc1 (stereo not shown) [Diflumetorim] | 100
44 | CN/C(=N/CC1CCOC1)N[N+](=O)[O-] (stereo not shown) [Dinotefuran] | 100

Same assay, conditions: test compound 200 ppm plus 2 ppm TFNA-AM, knockdown after 1 hour

Row | Compound | Knock Down, with TFNA-AM [%]
45 | CCC(Nc1ncnc(C)c1Cl)c1ccc(OC(F)F)cc1 (stereo not shown) [Diflumetorim] | 100
46 | CN/C(=N/CC1CCOC1)N[N+](=O)[O-] (stereo not shown) [Dinotefuran] | 100
